Reference: patent publication US10548906B2, “Methods of promoting hepatic regeneration” (Intercept Pharmaceuticals, Inc., priority 2015, dated 2020)

Assays:
[1] = test system: New Zealand White rabbits; experiment: Hepatobiliary scintigraphy, 99mTc-mebrofenin uptake after PVE (Example 5); format: in vivo, rabbit
Procedure: Liver function was assessed using hepatobiliary scintigraphy (HBS) with ^99mTc-labeled (2,4,6 trimethyl-3-bromo) iminodiacetic acid (^99mTc-mebrofenin, Bridatec, GE Healthcare, Eindhoven, the Netherlands) at days −7, −1, +3 and +7. Rabbits (n=6 per treatment group) were anesthetized and positioned on an imaging table with the liver and heart positioned under a large field-of-view single photon emission computed tomography (SPECT/CT) camera (Siemens Symbia T16). Regions of interest were drawn around the left ventricle for blood pool readings, around the entire liver for total liver uptake, and around the caudal liver lobe (FIG. 10; the yellow region of interest (ROI) delineates the left ventricle, the red ROI the total liver and the pink ROI the caudal liver lobe; a marked decrease in cranial liver lobe activity and increase in caudal liver lobe activity was seen following portal vein embolization.). Per rabbit, a dose of 50 MBq ^99mTc-mebrofenin was administered via a lateral ear vein directly before the start of acquisition.
The geometric mean dataset of the anterior and posterior cameras was used for analysis. Hepatic ^99mTc-mebrofenin uptake rate was calculated as an increase of ^99mTc-mebrofenin uptake over two minutes, corrected for perfusion. Total liver uptake was represented by the total hepatic ^99mTc-mebrofenin uptake rate, and calculated as a percentage of the injected dose per minute. The fractional ^99mTc-mebrofenin uptake rate was calculated for the caudal liver lobe, based of distribution of segmental activity and was corrected for baseline measurements at t=−7 days.

Adult female rabbits = experiment: PVE in rabbits: CLV and bile salts (Example 5a); format: in vivo, rabbit; details: day 3 after PVE
Procedure: Adult female rabbits received vehicle or the FXR agonist obeticholic acid (OCA; 10 mg/kg, daily oral gavage) for 7 days prior to, and after embolization (day 0) of the cranial liver lobes. Effectiveness of PVE was confirmed by portography, and caudal liver volume (CLV) was analyzed by CT-volumetric analysis at days −7, −1, +3 and +7. Rabbits were sacrificed at day +3 and +7 (n=5-6 per group).

Wistar rats = experiment: Liver growth in cholestatic (rBDL) rats prior to partial hepatectomy (Example 6); format: in vivo, rat; details: prior to PHx
From the text: After the acclimatization period, the rats either continued on a regular chow diet or were switched to a methionine and choline-deficient (MCD) diet (Harlan Teklad, Madison, Wis.) for 3 weeks to induce moderate hepatic steatosis [Heger 2011a]. At the start of the second diet week, the rats either underwent sham surgery or were subjected to reversible bile duct ligation (rBDL). For rBDL, the extrahepatic bile duct was cannulated with a polyethylene catheter (length=±1.5 cm, inner diameter=0.4 mm, outer diameter=0.9 mm, Braun, Melsungen, Germany) connected to Silastic Tubing with a closed distal tip (length=±7.5 cm, inner diameter=0.8 mm, outer diameter=1.4 mm, Dow Corning, Midland, Mich.) [Kloek 2008]. Sham-operated animals underwent abdominal surgery, including bile duct mobilization, without inducing a biliary obstruction. Groups of rBDL rats were left untreated or received a daily oral gavage of the FXR agonist obeticholic acid (OCA, 10 mg/kg in 0.5% methylcellulose, 1.5 mL per 300 g body weight) between 7:30 and 9:00 AM.
Seven days after BDL or sham operation, all rats were subjected to 70% PHx [DeGraaf 2011]. […]
At baseline (i.e., directly before PHx) and one to five days after PHx, animals were euthanized under isoflurane anesthesia by exsanguination. […] Liver regrowth was calculated from the regenerated liver mass, and was expressed as percentage of total liver mass prior to PHx. The projected remnant liver mass was calculated using the weight of the resected liver segments, which represent 70% of the total liver mass. Dry liver weights were measured to correct for hepatic water content [Kloek 2010a].
After formalin fixation, liver specimens were dehydrated, paraffin-embedded, and stained with hematoxylin and eosin (H&E), the collagen type I and III stain picrosirius red, or the proliferation marker Ki67 [Marsman 2013]. Semi-quantitative analysis of H&E- and picrosirius red-stained liver histology was performed by an experienced hepatopathologist (JV) blinded to the experimental groups using a scoring system detailed in Table 1. […]

Fxr = experiment: qRT-PCR of proliferation-, Fxr- and bile acid homeostasis-related genes in liver and ileum of rBDL rats (Example 6); format: in vivo, rat
Procedure: Transcriptional analysis was performed [Olthof 2015]. Liver samples were homogenized with a MagNA Lyser and total RNA was extracted with the High Pure RNA Tissue Kit (both from Roche Applied Sciences, Penzberg, Germany). One μg of RNA was reverse transcribed to cDNA using the SensiFAST cDNA Synthesis Kit (Bioline, London, UK) according to manufacturer's instructions. Quantitative reverse transcriptase polymerase chain reaction was performed on a LightCycler 480 (Roche, Basel, Switzerland) using SensiFAST SYBR No-ROX mix (Bioline). Fluorescence data was processed and analyzed and normalized to hypoxanthine-guanine phosphoribosyltransferase (Hprt) for ileum samples, and the geometric mean of ubiquitin C (Ubc) and beta-2-microglobulin (B2m) for liver samples. […] Primers were designed using NCBI Primer Blast (http://www.ncbi.nlm.nih.gov/tools/primer-blast/) to span an intron or exon-exon junction and prevent amplification of residual genomic DNA (Table 2). Melting curve analysis and agarose gel electrophoresis were used to validate primer specificity.

mice = details: 2 years, 25 mg/kg; cited from earlier work
[2] = prior to PHx, vs untreated rBDL

SMILES: CC[C@H]1[C@@H](O)[C@@H]2[C@H](CC[C@]3(C)[C@@H]([C@H](C)CCC(=O)O)CC[C@@H]23)[C@@]2(C)CC[C@@H](O)C[C@@H]12 [Compound 1, 3α,7α-dihydroxy-6α-ethyl-5β-cholanic acid]
- increase in contribution of caudal liver lobe (CLF share) to total liver mebrofenin uptake ([1]; 3 days after PVE): 44.5±5.4%
- increase in caudal liver function relative to vehicle ([1]; day +3): 1.2 fold
- total liver uptake of mebrofenin ([1]; days −1, +3, +7, N=6): remained stable in both groups
- increase in CLV (Adult female rabbits): 59.3±19.2%
- liver mass corrected for hepatic water content (dry weight) (Wistar rats; 7 days rBDL): increased liver mass
- gross liver mass vs control group (Wistar rats; 7 days rBDL, 10 mg/kg daily oral): higher
- hepatocyte proliferation measured by Ki67 staining (Wistar rats; vs untreated rBDL or non-cholestatic animals): more pronounced
- hepatic Bsep expression, upregulation (Fxr; baseline): ~8 fold
- hepatic Mrp4 expression (Fxr; baseline): upregulated
- hepatic Ntcp expression (Fxr; baseline): mildly upregulated
- hepatic Ostβ expression (Fxr; baseline): upregulated
- hepatocyte Cyp7a1 mRNA level (Fxr; baseline): did not alter
- hepatocyte Shp mRNA level (Fxr; baseline): did not alter
- hepatic Mrp3 expression (Fxr; baseline, vs untreated rBDL): more robust induction
- liver Fxr mRNA (Fxr; day 1 post-PHx): slight decrease
- hepatic Foxm1 expression (Fxr; during liver regeneration after PHx): did not change
- hepatic Shp transcript levels relative to untreated rBDL and control rats (Fxr; first two days after PHx): high transcript levels
- hepatic Fgfr4 transcript level (Fxr; prior to / on the day of PHx, listed as OCA): markedly downregulated
- hepatic Stat3 expression (Fxr; prior to PHx): considerably upregulated
- ileal Fxr expression (Fxr; prior to PHx): minor downregulation
- ileal Shp expression (Fxr; prior to PHx): marked upregulation
- ileal Fgf15 transcription, upregulation (Fxr; prior to PHx, rBDL rats): ~20 fold
- hepatic expression of Foxm1 (Fxr; [2]): comparable
- hepatic expression of Fxr (Fxr; [2]): comparable
- hepatic expression of Ccnd1 (CyclinD1) (Fxr; prior to PHx, vs untreated rBDL or non-cholestatic animals): more pronounced
- hepatic Fgfr4 expression (Fxr; regrowth phase after PHx): remained low
- malignant transformation (mice): does not lead to malignant transformation
